Laboratory results taken from US20040033940A1, “Cyclic hepta-peptide derivative from colonial ascidians, lissoclinum SP” (Pharma Mar, S.A., priority 2002, published 2004).
≈ marks a conversion by molar mass, not a printed value. Starred links: 1 amine or outer side, 2 acyl side, 3 side chain; linkers in the order of their positions; H or OH if unused. Non-standard residues stand in square brackets, D forms with d. Residues, ends and D or L forms follow the SMILES beside them. *: point of attachment. X1 = O=C([C@@H]1CSC([C@H](Cc2ccccc2)N[*:1])=N1)[*:2]; Allyl(1,1-Me2) = C=CC(C)(C)*

Tests used:
[1] = tested on: P-388 (suspension culture of a lymphoid neoplasm from DBA-2 mouse)
Protocol: (§1) Cells were maintained in logarithmic phase of growth in Eagle's Minimum Essential Medium, with Earle's Balanced Salts, with 2.0 mM L-glutamine, with non-essential amino acids, without sodium bicarbonate (EMEM/neaa); supplemented with 10% Fetal Calf Serum (FCS), 10^−2 M sodium bicarbonate and 0.1 g/l penicillin-G+streptomycin sulfate.
A simple screening procedure was carried out to determine and compare the antitumor activity of this compound, using an adapted form of the method described by Bergeron et al. [Biochem. Bioph. […] The antitumor cells employed were P-388 (suspension culture of a lymphoid neoplasm from DBA-2 mouse), A-549 (monolayer culture of a human lung carcinoma), HT-29 (monolayer culture of a human colon carcinoma) and MEL-28 (monolayer culture of a human melanoma).
P-388 cells were seeded into 16 mm wells at 1×10^4 cells per well in 1 ml aliquots of MEM 5FCS containing the indicated concentration of drug. A separate set of cultures without drug was seeded as control growth to ensure that cells remained in exponential phase of growth. All determinations were carried out in duplicate. After three days of incubation at 37° C., 10% CO2 in a 98% humid atmosphere, an approximate IC50 was determined by comparing the growth in wells with drug to the growth in wells control.

[2] = tested on: A-549 (monolayer culture of a human lung carcinoma)
Protocol: as §1
(§2) The antitumor cells employed were P-388 (suspension culture of a lymphoid neoplasm from DBA-2 mouse), A-549 (monolayer culture of a human lung carcinoma), HT-29 (monolayer culture of a human colon carcinoma) and MEL-28 (monolayer culture of a human melanoma).
(§3) A-549, HT-29 and MEL-28 cells were seeded into 16 mm wells at 2×10^4 cells per well in 1 ml aliquots of MEM 10FCS containing the indicated concentration of drug. A separate set of cultures without drug was seeded as control growth to ensure that cells remained in exponential phase of growth. All determinations were carried in duplicate. After three days of incubation at 37° C., 10% CO2 in a 98% humid atmosphere, the wells were stained with 0.1% Crystal Violet. An approximate IC50 was determined by comparing the growth in wells with drug to the growth in wells control.

[3] = tested on: HT-29 (monolayer culture of a human colon carcinoma)
Protocol: as §1, §2, §3

[4] = tested on: MEL-28 (monolayer culture of a human melanoma)
Protocol: as §1, §2, §3

With C=CC(C)(C)OC[C@@H]1NC(=O)[C@H]([C@@H](C)OC(C)(C)C=C)NC(=O)[C@@H]2CSC(=N2)[C@H](Cc2ccccc2)NC(=O)[C@@H]2CCCN2C(=O)[C@H](C)NC(=O)[C@H]([C@@H](C)CC)NC1=O [trunkamide A] (cyclo(AP[X1]T(Allyl(1,1-Me2))S(Allyl(1,1-Me2))I)) the “IC50 P-388” value [1] was 0.5 mg/L (≈ 0.597 µM), the “IC50 A-549” value [2] was 0.5 mg/L (≈ 0.597 µM) and the “IC50 HT-29” value [3] was 0.5 mg/L (≈ 0.597 µM). The “IC50 MEL-28” value [4] was 1.0 mg/L (≈ 1.19 µM).
